Values quoted from earlier work in patent US20070092539A1 (priority 2003, published 2007).

How the values were obtained:
[1] = test system: rates with arthritis; conditions: experimental models on rates with arthritis, compared with other AINEs

- solubility in methanol (methanol): slightly soluble in methanol
- solubility in water (water): practically insoluble in water
Compound: Cc1cnc(NC(=O)C2=C(O)c3ccccc3S(=O)(=O)N2C)s1 [meloxicam, 4-hydroxy-2-methyl-N-(5-methyl-2-thiazolyl)-2H-1,2-benzotiazine-3-carboxamide-1,1-dioxide]
- therapeutic margin (ulcerogenic vs anti-inflammatory doses) [1]: superior therapeutic margin over the other AINEs
